The values that follow come from PubChem BioAssay (NCI).

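96-well plates; 48 h exposure; 5 concentrations. Endpoints by linear interpolation between flanking doses. Not reached: highest tested concentration assigned. TGI marks complete inhibition of growth.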 A value given as a limit tells only on which side of the number the result lay.

What all share (assay): NCI anticancer screen, dose series, 48 h
Assay [1] relates to SK-MEL-28 melanoma.
Assay [2] relates to RXF 393 renal.
Assay [3] deals with M14 melanoma.
The test system of assay [4] is K-562 leukemia.
The test system of assay [5] is SW-620 colon.
Assay [6] has as its system 786-0 renal.
Assay [7] has as its system A498 renal.
The subject of assay [8] is UACC-257 melanoma.
For assay [9], the system named is SK-MEL-2 melanoma.
Assay [10] deals with NCI-H460 lung.
The test system of assay [11] is A549 NSCLC.
The subject of assay [12] is EKVX NSCLC.
The test system of assay [13] is HOP-62 NSCLC.
The subject of assay [14] is UO-31 renal.
The test system of assay [15] is KM12 colon.
The subject of assay [16] is OVCAR-5 ovarian.
Assay [17] deals with SF-295 CNS.
Assay [18] has as its system OVCAR-4 ovarian.
Assay [19] deals with SR leukemia.

With `CCCc1cc(OC(=O)c2c(O)cc(OC)cc2CCC)cc(O)c1C(=O)O`, the TGI was 70.6 µM in assay [1]; 53.2 µM in [2]; 73.7 µM in [3]; over 100 µM in assay [4]; over 100 µM in assay [5]; over 100 µM in assay [6]. Further, the TGI is 98.8 µM in assay [7]; 56.2 µM in [8]; 47.4 µM in [9]; 76.6 µM in [10]; over 100 µM in [11]; 86.8 µM in [12]. For the same compound, the TGI in [13] is 35.6 µM; in assay [14] it was 35.9 µM; in [15] it was over 100 µM; in assay [16] it was over 100 µM.
Consider `COc1ccc(C2Cc3cc(OC)c(OC)c(OC)c3C2)cc1` (centres undefined), for which the TGI in assay [1], in [3], in assay [4], in [5], in assay [6] and in [7] was over 100 µM each time. In addition, the TGI in [8] is over 100 µM; in [9], over 100 µM; in [10], over 100 µM; in assay [11], 76.2 µM; in assay [12] it was over 100 µM; in [13], over 100 µM. Besides, the TGI in assay [14] is 64.8 µM; in [17], over 100 µM; in [15], over 100 µM; in assay [18], over 100 µM; in [16] it was over 100 µM.
In the case of `O=[N+]([O-])c1cccc(Nc2nc(Cl)nc(Cl)n2)c1`, the TGI in assay [1], in [3], in assay [4], in [5], in assay [6] and in assay [8] was over 100 µM in each case. Besides, the TGI in [9], in assay [10], in assay [11], in assay [12], in [13] and in assay [14] was over 100 µM throughout. Besides, the TGI in [19], in [17], in assay [15], in [18] and in assay [16] was over 100 µM in each case.
As for `CCSC1=N/C(=C\c2ccco2)C(=O)N1`, the TGI in [1], in assay [3], in assay [4], in [5], in assay [6] and in assay [7] was over 100 µM each time. The TGI in assay [9], in [11], in assay [12], in assay [13], in [14] and in [19] was over 100 µM in each case. Besides, the TGI in assay [17], in [15] and in assay [16] was over 100 µM in each case.
For `O=C1OC([C@H](O)c2cccnc2)c2ccccc21` (some centres undefined), the TGI in assay [1], in assay [2], in [3], in [4], in assay [5] and in assay [6] was over 10 µM throughout. The TGI in assay [8], in assay [9], in assay [10], in [11], in assay [12] and in [13] was over 10 µM in each case. Also, the TGI in [14], in assay [19], in assay [17], in assay [15], in assay [18] and in assay [16] was over 10 µM throughout.
On to `COC(=O)/C=C(\C)CCC1SC1(C)C` (centres undefined), for which the TGI in assay [1], in [2], in assay [3], in [4], in assay [5] and in assay [6] was over 100 µM each time. Moreover, the TGI in assay [7], in assay [8], in assay [9], in assay [10], in assay [11] and in assay [12] was over 100 µM in each case. The TGI in assay [13], in assay [14], in assay [17], in assay [15], in [18] and in [16] was over 100 µM throughout.
With `CCCNCCCCC(NC(C)=O)C(=O)NCc1ccccc1` (centres undefined), the TGI in [1], in assay [2], in [3], in assay [4], in assay [5] and in [6] was over 100 µM each time. Further, the TGI in assay [7], in [8], in assay [9], in assay [10], in assay [11] and in assay [12] was over 100 µM throughout. The TGI in assay [13], in assay [14], in assay [17], in [15], in assay [18] and in assay [16] was over 100 µM each time.
Consider `CN1CCc2ccccc2C(C(=O)c2ccc3c(c2)OCO3)C1=O` (centres undefined), for which the TGI in assay [1], in assay [2], in assay [3], in [4], in [5] and in [6] was over 100 µM in each case. For the same compound, the TGI in assay [7], in [8], in [9], in assay [10], in assay [11] and in assay [13] was over 100 µM throughout. Moreover, the TGI in assay [14], in assay [15] and in assay [18] was over 100 µM each time.
For `COc1cc([C@@H]2c3cc4c(cc3[C@@H](NCc3cccc(C#N)c3)C3COC(=O)[C@@H]32)OCO4)cc(OC)c1O` (some centres undefined), the TGI in assay [1] was determined as 46.1 µM; in assay [2] it was 19.6 µM; in [3] it was 6.22 µM; in assay [4], 25.4 µM; in assay [5] it was 11.1 µM; in [6], 2.62 µM. Also, the TGI in [7] is 4.27 µM; in assay [8], over 100 µM; in assay [9], 8.78 µM; in [10] it was 2.09 µM; in assay [11], 1.91 µM; in assay [12] it was 6.58 µM. Besides, the TGI in assay [13] is 1.79 µM; in assay [14], 5.52 µM; in [17], 7 µM; in assay [15], 4.66 µM; in assay [18] it was over 100 µM; in [16] it was 14.6 µM.
With `CCCCCCCCCCCCOCC1(COCCCCCCCCCCCC)COC(c2ccc(N)cc2)OC1`, the TGI in assay [1], in assay [3], in assay [4], in assay [5], in assay [6] and in assay [7] was over 100 µM each time. Further, the TGI in assay [8], in assay [9], in assay [11], in assay [12], in [13] and in assay [14] was over 100 µM each time. For the same compound, the TGI in assay [19], in assay [17], in [15], in assay [18] and in assay [16] was over 100 µM throughout.
Take `COc1ccc2[nH]c3c(c2c1)[C@H]1CCC(C(C)(C)C)C[C@H]1[C@H]1C(=O)N(c2ccccc2)C(=O)[C@@H]31` (some centres undefined): the TGI in assay [1] is over 100 µM; in assay [2], 26.5 µM; in assay [3] it was 30.6 µM; in assay [4], over 91.5 µM; in assay [5], over 100 µM; in assay [6], 15.6 µM. Besides, the TGI in assay [7] was 44.1 µM; in assay [8], over 80.6 µM; in assay [9], 58 µM; in [10] it was over 53.6 µM; in assay [11] it was over 75.8 µM; in [12] it was over 100 µM. For the same compound, the TGI is 38.3 µM in [13]; 97.5 µM in assay [14]; over 42.5 µM in assay [17]; over 100 µM in assay [15]; 14.4 µM in assay [18]; over 100 µM in [16].
For `CCCCCCCCC(O)c1ccc(/C=C\C(O)CCCC(=O)O)s1` (centres undefined), the TGI in assay [1], in assay [2], in assay [3], in [4], in assay [5] and in assay [6] was over 100 µM throughout. Further, the TGI in [8], in assay [9], in assay [10], in assay [11], in assay [12] and in assay [14] was over 100 µM throughout. The TGI in assay [19], in assay [17], in assay [15], in [18] and in assay [16] was over 100 µM each time.
Turning to `CO/C(=N\N=C\c1ccc(Cl)c(Cl)c1)c1ccncc1`, the TGI in assay [1], in assay [2], in assay [3], in [4], in assay [5] and in assay [6] was over 10 µM in each case. The TGI in assay [9], in assay [10], in assay [11], in [13], in [14] and in [19] was over 10 µM each time. Besides, the TGI in assay [17], in assay [15] and in assay [16] was over 10 µM in each case.
